Laboratory results reported in ChEMBL document CHEMBL1255313 (Antimicrob Agents Chemother, 2008).

Tests used:
Homo sapiens [1] = test: AUC (0 to infinity) in healthy human plasma assessed as (S,S)-hydroxybupropion level at 150 mg, po co-treated with ritonavir 200 mg tid for 1 day, 300 mg bid for next 2 days measured after 48 hrs by high-performance liquid chromatography-tandem mass spectrometry; format: ADME, organism-based; set-up: dose 150 mg, time infinity, route oral; conditions: in vivo
Homo sapiens [2] = test: AUC (0 to infinity) in healthy human plasma assessed as (S,S)-hydroxybupropion level at 150 mg, po co-treated with ritonavir 200 mg tid for 1 day, 300 mg bid for next 6 days, 400 mg bid upto 17 day of study measured after 48 hrs by high-performance liquid chromatography-tandem mass spectrometry; format: ADME, organism-based; set-up: dose 150 mg, time infinity, route oral; conditions: in vivo
Homo sapiens [3] = test: AUC (0 to 72) in healthy human plasma assessed as hydroxybupropion level at 150 mg, po co-treated with ritonavir 200 mg tid for 1 day, 300 mg bid for next 2 days measured after 48 hrs; format: ADME, organism-based; set-up: time < 72 hr, dose 150 mg, route oral; conditions: in vivo, 72 h
Homo sapiens [4] = test: AUC (0 to 72) in healthy human plasma assessed as (S,S)-hydroxybupropion level at 150 mg, po co-treated with ritonavir 200 mg tid for 1 day, 300 mg bid for next 2 days measured after 48 hrs by high-performance liquid chromatography-tandem mass spectrometry; format: ADME, organism-based; set-up: dose 150 mg, time < 72 hr, route oral; conditions: in vivo, 72 h
[5] = AUC (0 to infinity) in healthy human plasma at 150 mg, po co-treated with ritonavir 200 mg tid for 1 day, 300 mg bid for next 2 days measured after 48 hrs; format: ADME, organism-based; set-up: dose 150 mg, route oral, time infinity
clinical [6] = conditions: human, plasma, po
clinical [7] = conditions: human, plasma, po; remark: listed apart in the source
Homo sapiens [8] = test: Tmax in healthy human plasma assessed as (S,S)-hydroxybupropion level at 150 mg, po co-treated with ritonavir 200 mg tid for 1 day, 300 mg bid for next 2 days measured after 48 hrs by high-performance liquid chromatography-tandem mass spectrometry; format: ADME, organism-based; conditions: in vivo
Homo sapiens [9] = test: Apparent renal clearance in human assessed as (S,S)-Hydroxybupropion at 150 mg, po co-treated with ritonavir 200 mg tid for 1 day, 300 mg bid for next 2 days using 0-48 hrs urine sample by high-performance liquid chromatography-tandem mass spectrometry; format: ADME, organism-based; conditions: in vivo
clinical [10] = conditions: human, plasma, po; remark: listed apart in the source
Homo sapiens [11] = test: Apparent renal clearance in human assessed as (S,S)-Hydroxybupropion at 150 mg, po co-treated with ritonavir 200 mg tid for 1 day, 300 mg bid for next 6 days, 400 mg bid upto 17 day of study using 0-48 hrs urine sample by high-performance liquid chromatography-tandem mass spectrometry; format: ADME, organism-based; conditions: in vivo
Homo sapiens [12] = test: AUC (0 to 72) in healthy human plasma assessed as (S,S)-hydroxybupropion level at 150 mg, po co-treated with ritonavir 200 mg tid for 1 day, 300 mg bid for next 6 days, 400 mg bid upto 17 day of study measured after 48 hrs by high-performance liquid chromatography-tandem mass spectrometry; format: ADME, organism-based; set-up: dose 150 mg, time < 72 hr, route oral; conditions: in vivo, 72 h
[13] = AUC (0 to infinity) in healthy human plasma at 150 mg, po co-treated with ritonavir 200 mg tid for 1 day, 300 mg bid for next 6 days, 400 mg bid upto 17 day of study measured after 48 hrs; format: ADME, organism-based; set-up: dose 150 mg, time infinity, route oral
Homo sapiens [14] = test: Apparent renal clearance in human assessed as (R,R)-Hydroxybupropion at 150 mg, po co-treated with ritonavir 200 mg tid for 1 day, 300 mg bid for next 2 days using 0-48 hrs urine sample by high-performance liquid chromatography-tandem mass spectrometry; format: ADME, organism-based; conditions: in vivo
Homo sapiens [15] = test: (§1) Tmax in healthy human plasma assessed as (R,R)-hydroxybupropion level at 150 mg, po co-treated with ritonavir 200 mg tid for 1 day, 300 mg bid for next 6 days, 400 mg bid upto 17 day of study measured after 48 hrs by high-performance liquid chromatography-tandem mass spectrometry; format: ADME, organism-based; conditions: in vivo
[16] = Apparent clearance with respect to oral bioavailability in human at 150 mg, po co-treated with ritonavir 200 mg tid for 1 day, 300 mg bid for next 6 days, 400 mg bid upto 17 day of study measured after 48 hrs; format: ADME, organism-based; conditions: in vivo
Homo sapiens [17] = test: Tmax in healthy human plasma assessed as (R,R)-hydroxybupropion level at 150 mg, po co-treated with ritonavir 200 mg tid for 1 day, 300 mg bid for next 2 days measured after 48 hrs by high-performance liquid chromatography-tandem mass spectrometry; format: ADME, organism-based; conditions: in vivo
[18] = Apparent clearance with respect to oral bioavailability in human at 150 mg, po co-treated with ritonavir 200 mg tid for 1 day, 300 mg bid for next 2 days measured after 48 hrs; format: ADME, organism-based; conditions: in vivo
Homo sapiens [19] = test: AUC (0 to 72) in healthy human plasma assessed as hydroxybupropion level at 150 mg, po co-treated with ritonavir 200 mg tid for 1 day, 300 mg bid for next 6 days, 400 mg bid upto 17 day of study measured after 48 hrs; format: ADME, organism-based; set-up: dose 150 mg, time < 72 hr, route oral; conditions: in vivo, 72 h
Homo sapiens [20] = test: Tmax in healthy human plasma assessed as hydroxybupropion level at 150 mg, po co-treated with ritonavir 200 mg tid for 1 day, 300 mg bid for next 6 days, 400 mg bid upto 17 day of study measured after 48 hrs; format: ADME, organism-based; conditions: in vivo
Homo sapiens [21] = test: Apparent renal clearance in human assessed as Hydroxybupropion at 150 mg, po co-treated with ritonavir 200 mg tid for 1 day, 300 mg bid for next 6 days, 400 mg bid upto 17 day of study using 0-48 hrs urine sample; format: ADME, organism-based; conditions: in vivo
[22] = AUC in healthy human plasma at 400 mg, po bid for 2 weeks; format: ADME, organism-based
Homo sapiens [23] = test: AUC (0 to infinity) in healthy human plasma assessed as (R,R)-hydroxybupropion level at 150 mg, po co-treated with ritonavir 200 mg tid for 1 day, 300 mg bid for next 2 days measured after 48 hrs by high-performance liquid chromatography-tandem mass spectrometry; format: ADME, organism-based; set-up: dose 150 mg, time infinity, route oral; conditions: in vivo
Homo sapiens [24] = test: AUC (0 to 72) in healthy human plasma assessed as (R,R)-hydroxybupropion level at 150 mg, po co-treated with ritonavir 200 mg tid for 1 day, 300 mg bid for next 2 days measured after 48 hrs by high-performance liquid chromatography-tandem mass spectrometry; format: ADME, organism-based; set-up: time < 72 hr, dose 150 mg, route oral; conditions: in vivo, 72 h
Homo sapiens [25] = test: Apparent renal clearance in human assessed as (R,R)-Hydroxybupropion at 150 mg, po co-treated with ritonavir 200 mg tid for 1 day, 300 mg bid for next 6 days, 400 mg bid upto 17 day of study using 0-48 hrs urine sample by high-performance liquid chromatography-tandem mass spectrometry; format: ADME, organism-based; conditions: in vivo
Homo sapiens [26] = test: Apparent renal clearance in human assessed as Hydroxybupropion at 150 mg, po co-treated with ritonavir 200 mg tid for 1 day, 300 mg bid for next 2 days using 0-48 hrs urine sample; format: ADME, organism-based; conditions: in vivo
[27] = AUC in healthy human plasma at 100 mg, po bid for 2 weeks; format: ADME, organism-based
Homo sapiens [28] = test: AUC (0 to infinity) in healthy human plasma assessed as hydroxybupropion level at 150 mg, po co-treated with ritonavir 200 mg tid for 1 day, 300 mg bid for next 2 days measured after 48 hrs; format: ADME, organism-based; set-up: dose 150 mg, time infinity, route oral; conditions: in vivo
clinical [29] = conditions: human, plasma, po; remark: listed apart in the source
[30] = Apparent renal clearance in human at 150 mg, po co-treated with ritonavir 200 mg tid for 1 day, 300 mg bid for next 6 days, 400 mg bid upto 17 day of study using 0-48 hrs urine sample; format: ADME, organism-based; conditions: read-out: CL_renal
Homo sapiens [31] = test: Tmax in healthy human plasma assessed as hydroxybupropion level at 150 mg, po co-treated with ritonavir 200 mg tid for 1 day, 300 mg bid for next 2 days measured after 48 hrs; format: ADME, organism-based; conditions: in vivo
Homo sapiens [32] = test: AUC (0 to infinity) in healthy human plasma assessed as (R,R)-hydroxybupropion level at 150 mg, po co-treated with ritonavir 200 mg tid for 1 day, 300 mg bid for next 6 days, 400 mg bid upto 17 day of study measured after 48 hrs by high-performance liquid chromatography-tandem mass spectrometry; format: ADME, organism-based; set-up: dose 150 mg, time infinity, route oral; conditions: in vivo
Homo sapiens [33] = test: AUC (0 to infinity) in healthy human plasma assessed as hydroxybupropion level at 150 mg, po co-treated with ritonavir 200 mg tid for 1 day, 300 mg bid for next 6 days, 400 mg bid upto 17 day of study measured after 48 hrs; format: ADME, organism-based; set-up: dose 150 mg, route oral, time infinity; conditions: in vivo
Homo sapiens [34] = test: as §1, with “Tmax in healthy human plasma assessed as (S,S)-hydroxybupropion” for “(R,R)-hydroxybupropion”; format: ADME, organism-based; conditions: in vivo
[35] = Apparent renal clearance in human at 150 mg, po co-treated with ritonavir 200 mg tid for 1 day, 300 mg bid for next 2 days using 0-48 hrs urine sample; format: ADME, organism-based; conditions: read-out: CL_renal
Homo sapiens [36] = test: AUC (0 to 72) in healthy human plasma assessed as (R,R)-hydroxybupropion level at 150 mg, po co-treated with ritonavir 200 mg tid for 1 day, 300 mg bid for next 6 days, 400 mg bid upto 17 day of study measured after 48 hrs by high-performance liquid chromatography-tandem mass spectrometry; format: ADME, organism-based; set-up: dose 150 mg, time < 72 hr, route oral; conditions: in vivo, 72 h

Q: For `CC(NC(C)(C)C)C(=O)c1cccc(Cl)c1` (racemic) [BUPROPION], which AUC (Homo sapiens [1]) is on record?
A: The AUC was 404 ng·h/mL.

Q: And the AUC (Homo sapiens [2])?
A: Its AUC is 303 ng·h/mL.

Q: And the AUC (Homo sapiens [3])?
A: Its AUC is 8470 ng·h/mL.

Q: What about the AUC (Homo sapiens [4]) of the same compound?
A: The AUC was 356 ng·h/mL.

Q: And the AUC(0-inf) [5]?
A: Its AUC(0-inf) is 1290 ng·h/mL.

Q: What about the Cmax (clinical [6]) of the same compound?
A: Its Cmax is 267 ng/mL.

Q: What about the half-life (clinical [7]) of the same compound?
A: Its half-life is 16.8 h.

Q: What about the Tmax (Homo sapiens [8]) of the same compound?
A: Its Tmax is 1.7 h.

Q: What about the CL_renal (Homo sapiens [9]) of the same compound?
A: Its CL_renal is 96 mL/min.

Q: What about the Cmax (clinical [10]) of the same compound?
A: The Cmax was 345 ng/mL.

Q: What about the CL_renal (Homo sapiens [11]) of the same compound?
A: Its CL_renal is 134 mL/min.

Q: And the AUC (Homo sapiens [12])?
A: Its AUC is 274 ng·h/mL.

Q: What about the AUC(0-inf) [13] of the same compound?
A: The AUC(0-inf) was 1030 ng·h/mL.

Q: What about the CL_renal (Homo sapiens [14]) of the same compound?
A: The CL_renal was 172 mL/min.

Q: What about the Tmax (Homo sapiens [15]) of the same compound?
A: The Tmax was 3.5 h.

Q: And the CL/F [16]?
A: The CL/F was 3240 mL/min.

Q: What about the Tmax (Homo sapiens [17]) of the same compound?
A: Its Tmax is 3.8 h.

Q: And the CL/F [18]?
A: Its CL/F is 2470 mL/min.

Q: What about the AUC (Homo sapiens [19]) of the same compound?
A: Its AUC is 6100 ng·h/mL.

Q: What about the Tmax (Homo sapiens [20]) of the same compound?
A: Its Tmax is 3.4 h.

Q: What about the CL_renal (Homo sapiens [21]) of the same compound?
A: The CL_renal was 183 mL/min.

Q: What about the AUC at 336 h [22] of the same compound?
A: The AUC at 336 h was 57 ng·h/mL.

Q: And the AUC (Homo sapiens [23])?
A: Its AUC is 10950 ng·h/mL.

Q: What about the AUC (Homo sapiens [24]) of the same compound?
A: The AUC was 8120 ng·h/mL.

Q: And the CL_renal (Homo sapiens [25])?
A: Its CL_renal is 217 mL/min.

Q: What about the CL_renal (Homo sapiens [26]) of the same compound?
A: The CL_renal was 143 mL/min.

Q: What about the AUC at 336 h [27] of the same compound?
A: The AUC at 336 h was 50 ng·h/mL.

Q: And the AUC (Homo sapiens [28])?
A: The AUC was 11330 ng·h/mL.

Q: What about the half-life (clinical [29]) of the same compound?
A: The half-life was 17.8 h.

Q: And the CL renal [30]?
A: Its CL renal is 21 mL/min.

Q: What about the Tmax (Homo sapiens [31]) of the same compound?
A: Its Tmax is 3.6 h.

Q: And the AUC (Homo sapiens [32])?
A: The AUC was 7330 ng·h/mL.

Q: What about the AUC (Homo sapiens [33]) of the same compound?
A: Its AUC is 7560 ng·h/mL.

Q: And the Tmax (Homo sapiens [34])?
A: The Tmax was 1.5 h.

Q: And the CL renal [35]?
A: Its CL renal is 20 mL/min.

Q: What about the AUC (Homo sapiens [36]) of the same compound?
A: Its AUC is 5829 ng·h/mL.
